{
  "source": "patent US12721838B2",
  "about": "(Henry Ford Health System, priority 2020, dated 2026)",
  "key": {"[1]": {"conditions": "cited from earlier work"}, "[2]": {"test_system": "c-JNK, caspase 3", "experiment": "Activation of c-JNK and caspase 3", "type": "cell-based, human", "conditions": "LNCaP-ENR cells", "experimental": "To explore the underlying mechanism of DCV-induced apoptosis in ERPC cells, the effect of DCV on Jun N-terminal kinases (JNKs) was analyzed. JNKs play a critical role in apoptotic pathways. […] Both caspase-dependent and caspase-independent apoptotic cell death processes are known."}, "[3]": {"test_system": "LNCaP-ENR cells", "experiment": "Apoptosis by Annexin V binding, flow cytometry", "type": "cell-based, human", "conditions": "LNCaP-ENR cells, 8 μM, 24 hours, flow cytometry", "experimental": "To test DCV effects on cancer cell apoptosis, LNCaP-ENR cells were treated with 8 μM DCV for 24 hours and analyzed by flow cytometry. Treatment with DCV indicated increased Annexin V binding, a read-out for apoptosis (FIG. 3C)."}, "[4]": {"test_system": "LNCaP-ENR and MR49F ERPC cells", "experiment": "In vitro invasion through extracellular matrix", "type": "cell-based, human", "conditions": "LNCaP-ENR and MR49F ERPC cells (data not shown)"}, "[5]": {"test_system": "LNCaP-ENR cells", "experiment": "MTS/PES cell viability assay, ERPC cells", "type": "cell-based, human", "experimental": "Plates were incubated for 72 hours at 37° C. in a CO2 incubator. Cell viability was measured by MTS/PES cell titer assay (Promega Corp., Madison, WI)."}, "[6]": {"test_system": "Trib2-OE cells", "experiment": "Enzalutamide sensitivity of Trib2-overexpressing prostate cancer cells", "type": "cell-based, human", "conditions": "Trib2-OE cells, DCV 6 μM", "text": "Prostate cancer cells were transfected with full length human gene to overexpress Trib2 (FIG. 18). […] Trib2 siRNA was used in parallel experiments as a positive control."}, "[7]": {"test_system": "NCI-H226, SK-MES-1, NCI-H2228 and NCI-H596 lung cancer cell lines", "experiment": "72-hour cell viability assay in lung cancer cell lines", "type": "cell-based, human"}, "[8]": {"test_system": "ERPC tumors (LNCaP-ENR cells)", "protocol": "BALB/c nude mice were subcutaneously injected with the LNCaP-ENR cells (1×10^6 cells per mouse) to develop tumors. Once the tumors reached a size of ~100 cubic mm, the mice were treated with 30 mg/kg/day DCV or a solution of DMSO:cremophor:PBS at 1:1:8 ratio, orally for four weeks (n=3). Tumor size and body weights were measured once per week. Tumor volumes were calculated using the following formula:\n[formula] • Wherein “TV” means tumor volume; • “a” is the long diameter of a tumor; and • “b” is the short diameter of a tumor.\nTumor samples were collected at 4 weeks post-treatment, and TRIB2 protein levels in the tumors were determined by immunohistochemistry (IHC) using monoclonal anti-Trib2 antibody (Santa Cruz Bio, Santa Cruz, CA; Cat. No.: 100878) at 1:100."}, "[9]": {"test_system": "LNCaP-ENR cells", "experiment": "Soft-agar colony formation assay", "type": "cell-based, human", "conditions": "LNCaP-ENR (ERPC) cells, three weeks; DCV at 8 μM", "experimental": "Effect of DCV on soft-agar colony formation was also analyzed. LNCaP-ENR cells (10,000 per well in 6-well plates) were plated in 0.3% soft-agar on top of a base layer of 0.6% agar. The cells were treated with DCV and incubated at 37° C. for three weeks in the CO2 incubator. Cells were given fresh media and drug every fourth day. At the end of the incubation period, colonies were stained with 0.025% crystal violet, and pictures of colonies were taken with a Nikon digital camera at ×200. Image processing was done using Q-Capture Pro-7 software. Exemplary methods of the foregoing technique can be found in Sarveswaran, Sivalokanathan et al. “Inhibition of 5-lipoxygenase downregulates stemness and kills prostate cancer stem cells by triggering apoptosis via activation of c-Jun N-terminal kinase.” Oncotarget vol. 10, 4 424-436. 11 Jan. 2019, the disclosure of which is incorporated herein by reference in its entirety."}, "[10]": {"biological_target": "T1, Trib2-Luciferase (Luc-Trib2) fusion (Homo sapiens, UniProt Q92519)", "T1 sequence (Q92519 with tags, fused parts or gaps)": "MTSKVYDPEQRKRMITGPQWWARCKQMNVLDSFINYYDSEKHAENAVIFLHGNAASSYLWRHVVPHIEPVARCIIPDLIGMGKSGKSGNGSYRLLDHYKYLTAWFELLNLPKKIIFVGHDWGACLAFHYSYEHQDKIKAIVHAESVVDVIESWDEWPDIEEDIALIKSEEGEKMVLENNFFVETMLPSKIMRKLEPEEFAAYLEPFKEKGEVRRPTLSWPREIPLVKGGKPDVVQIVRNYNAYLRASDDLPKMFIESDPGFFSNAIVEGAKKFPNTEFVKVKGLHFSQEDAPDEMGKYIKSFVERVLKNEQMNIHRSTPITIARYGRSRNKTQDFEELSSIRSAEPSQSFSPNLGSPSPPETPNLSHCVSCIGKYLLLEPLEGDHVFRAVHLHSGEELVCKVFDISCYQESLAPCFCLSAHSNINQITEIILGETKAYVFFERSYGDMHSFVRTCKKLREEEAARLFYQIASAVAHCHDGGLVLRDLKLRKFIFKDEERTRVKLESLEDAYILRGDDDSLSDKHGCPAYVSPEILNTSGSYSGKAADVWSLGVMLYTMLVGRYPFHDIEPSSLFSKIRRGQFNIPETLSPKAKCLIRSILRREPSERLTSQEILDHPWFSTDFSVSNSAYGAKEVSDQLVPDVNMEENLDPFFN", "experiment": "cell-based", "conditions": "HFF"}, "[11]": {"test_system": "ERPC cells", "experiment": "DNA degradation assay", "type": "cell-based, human", "text": "FIG. 17 depicts a graph showing the apoptotic effects of DCV as measured by DNA degradation assay."}, "[12]": {"conditions": "cited from earlier work", "remark": "listed apart in the source"}, "[13]": {"test_system": "pAkt, Bcl-xL, Survivin, and FOXO3", "experiment": "Western blot of TRIB2 downstream targets in LNCaP-ENR cells", "type": "cell-based, human", "conditions": "12 μM, 24 hours", "experimental": "LNCaP-ENR cells were treated with varying doses (4 μM, 8 μM, or 12 μM) of DCV for 24 hours. Effects on TRIB2 protein levels and its downstream targets (e.g., pAkt, Bcl-xL, Survivin, and FOXO3) were analyzed by Western blot. GAPDH was used as loading control. Protein levels of TRIB2, pAKT (S473), Bcl-xL, and Survivin were reduced in cells treated with 12 μM of DCV compared to control-treated cells (FIG. 3A). Levels of FOXO3 protein were increased at 12 μM of DCV treatment compared to control treatment. This was expected, as FOXO3 level is known to be decreased by Trib2. These effects on cellular protein levels were DCV concentration-dependent, with the most pronounced effects observed at the highest concentration tested (12 μM)."}},
  "note": "Values joined by “and” are separate entries in the source; they are usually repeats but may differ in a detail not shown here. Identical values can stand only once. Like-named read-outs stand apart in the source and are kept apart here.",
  "data": [
    {"smiles": "COC(=O)N[C@H](C(=O)N1CCC[C@H]1c1nc(-c2ccc(-c3ccc(-c4c[nH]c([C@@H]5CCCN5C(=O)[C@@H](NC(=O)OC)C(C)C)n4)cc3)cc2)c[nH]1)C(C)C", "note": "[Daclatasvir, 4,4′-bis[2-((2S)-1-{(2S)-2-[(methoxycarbonyl)amino]-3-methylbutanoyl}-2-pyrrolidinyl)-1H-imidazol-4-yl]-1,1′-biphenyl]", "values": [
      {"measurement": "tolerability", "setting": "[1]; 100 mg po daily", "result": "well tolerated"},
      {"measurement": "median peak plasma concentration", "setting": "[1]; after one dose of 60 mg, listed as DCV", "result": "~ 2 μg/ml and 2.5 μM"},
      {"measurement": "mean terminal half-life", "setting": "[1]; in vivo", "result": "12 to 15", "unit": "h"},
      {"measurement": "time to peak plasma concentrations after dosing", "setting": "[1]; in vivo", "result": "1 to 2", "unit": "h"},
      {"measurement": "time to steady state levels", "setting": "[1]; in vivo", "result": "after three days of administration"},
      {"measurement": "activation of caspase 3", "setting": "[2]", "result": "induces activation"},
      {"measurement": "activation of c-JNK", "setting": "[2]; dose-dependent", "result": "rapid and robust activation"},
      {"measurement": "Annexin V binding", "setting": "[3]", "result": "increased"},
      {"measurement": "in vitro invasion through extracellular matrix", "setting": "[4]", "result": "dramatically decreases"},
      {"measurement": "Cell viability", "setting": "[5]; LNCaP-ENR cells, varying doses, 72 hours, MTS/PES", "result": "effectively decreased"},
      {"measurement": "effective concentration in the pre-clinical prostate cancer modeling", "setting": "[5]; target steady state plasma concentration of planned trial", "result": 4, "unit": "µM"},
      {"measurement": "re-sensitization of resistant cells to enzalutamide", "setting": "[6]", "result": "re-sensitizes resistant cells to enzalutamide"},
      {"measurement": "killing of lung cancer cells", "setting": "[7]", "result": "effectively kills"},
      {"measurement": "Tumor volumes", "setting": "[8]; 30 mg/kg/day orally for four weeks, vs vehicle-treated animals", "result": "significantly reduced"},
      {"measurement": "TRIB2 protein levels in tumors by IHC", "setting": "[8]; 30 mg/kg/day orally, 4 weeks", "result": "reduced"},
      {"measurement": "soft-agar colony formation", "setting": "[9]", "result": "completely blocked"},
      {"measurement": "activity at 10 µM", "setting": "[10]; read-out: Luciferase activity (%)", "result": 28, "unit": "%"},
      {"measurement": "inhibition at 10 µM", "setting": "[10]; read-out: inhibition of Trib2-luciferase activity", "result": "> 70", "unit": "%"},
      {"measurement": "degradation of chromatin DNA", "setting": "[11]", "result": "triggers degradation of chromatin DNA to nucleosomal fragments"},
      {"measurement": "uptake rate", "setting": "[12]; delivered orally", "result": "about 67%"},
      {"measurement": "protein bound", "setting": "[12]; in vivo", "result": "~ 99%"},
      {"measurement": "half-life", "setting": "[12]; mammalian hosts", "result": "about 15 hours"},
      {"measurement": "tolerability", "setting": "[12]; mammalian hosts", "result": "very well tolerated"},
      {"measurement": "Levels of FOXO3 protein", "setting": "[13]; vs control treatment", "result": "increased"},
      {"measurement": "Protein levels of pAKT (S473), Bcl-xL, and Survivin", "setting": "[13]; vs control-treated cells", "result": "reduced"}
    ]}
  ]
}
